≈ marks a conversion by molar mass, not a printed value. Non-standard residues stand in square brackets, D forms with d. Residues, ends and D or L forms follow the SMILES beside them. ξ: configuration not given here. *: point of attachment. ξF = NC(Cc1ccccc1)C(=O)O; Cbz = O=C(OCc1ccccc1)*; CH2Cl = ClC*

In one data set the target is ClpP1P2 (Mycobacterium bovis, UniProt P0A527+P63784). The experiment in a line: cell-based. The data set is classed as cell-based, M. bovis BCG. As to conditions: for IC50: 24 h, read-out: Bacterial Clp IC50.
The test system of data set [1] is M. tuberculosis H37Rv. The data set can be described thus: Minimum bactericidal concentration (MBC99) by CFU enumeration. The data set is classed as cell-based. Conditions: for MBC: Mycobacterium tuberculosis, H37RV, 120 h, concentration killing 99% of bacteria (100-fold kill), 5 days treatment.
Data set [2] has as its system M. tuberculosis H37Rv. The experiment in a line: Turbidity-based growth inhibition (MIC50), M. tuberculosis H37Rv. The data set is classed as cell-based. As to conditions: Mycobacterium tuberculosis, 120 h, 50% growth inhibition, 5 days, OD600.
In another data set the test system is M. bovis BCG. The experiment in a line: organism not typed. The data set is classed as cell-based. Conditions: 120 h, read-out: M. bovis MIC50.
A further data set addresses bacterial proteasome (Mycobacterium bovis, UniProt A1KKF3). The experiment in a line: cell-based. Also noted: species or system M. bovis BCG.
A further data set can be described thus: in vitro. Conditions: human.
The next data set addresses human proteasome (Homo sapiens, UniProt P28074). The experiment in a line: cell-based.

Sequence of bacterial proteasome (A1KKF3 whole entry, looked up): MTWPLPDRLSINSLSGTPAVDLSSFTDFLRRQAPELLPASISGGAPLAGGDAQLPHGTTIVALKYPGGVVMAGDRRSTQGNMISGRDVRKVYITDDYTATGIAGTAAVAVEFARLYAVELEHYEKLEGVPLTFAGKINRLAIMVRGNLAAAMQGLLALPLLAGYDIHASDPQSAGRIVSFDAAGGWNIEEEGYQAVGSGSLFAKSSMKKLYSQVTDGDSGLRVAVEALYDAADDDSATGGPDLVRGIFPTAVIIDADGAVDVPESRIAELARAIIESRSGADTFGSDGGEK

What is called IC50 is the concentration at which inhibition is half-maximal. Usually MBC stands for the lowest tested concentration that kills the bacteria rather than only halting them. Broadly, the MIC50 is an inhibitory concentration at the 50% level, which refers to growth in some studies and to a panel of isolates in others. Regarding `CC(C)C[C@H](NC(=O)[C@H](Cc1ccccc1)NC(=O)c1cnccn1)B(O)O` [Pyr-FL-BA, Pyrazine-Phenylalanine-Leucine-Boronic acid], the figures for the IC50 at ClpP1P2 and against bacterial proteasome were 1.6 µM and 0.8 µM, respectively. Further, the MBC against M. tuberculosis H37Rv [1] is 50 µM (≈ 19.2 µg/mL). Moreover, the MIC50 with M. tuberculosis H37Rv [2] is 4 µM (≈ 1.54 µg/mL); in the data set with M. bovis BCG it was 0.8 µM (≈ 0.307 µg/mL).

For `CC(C)C[C@H](NC(=O)[C@H](Cc1ccccc1)NC(=O)c1cnccn1)C(=O)CCl` [Pyr-FL-CMK, N-((S)-1-(((S)-1-chloro-5-methyl-2-oxohexan-3-yl)amino)-1-oxo-3-phenylpropan-2-yl)pyrazine-2-carboxamide], in “in vitro”, the selectivity ratio is not below 20. Also, on ClpP1P2 (25 vs. 1.6 μM), the “loss of potency against ClpP1P2 compared to Bortezomib” value is on record as approximately 15 fold. Besides, the IC50 at ClpP1P2 was 25 µM; at human proteasome, more than 500 µM; against bacterial proteasome, 25 µM. For the same compound, the MBC in the data set on M. tuberculosis H37Rv [1] came out at 100 µM (≈ 41.7 µg/mL). The “reduction in bactericidal potency against M. tuberculosis” value with M. tuberculosis H37Rv [1] (compared to Bortezomib (MBC99)) is listed as “two-fold”. Also, the values for the MIC50 against M. tuberculosis H37Rv [2] and in the data set with M. bovis BCG were 25 µM (≈ 10.4 µg/mL) and 20 µM (≈ 8.34 µg/mL), respectively.

On to `O=C(CNC(=O)OCc1ccccc1)NCC(=O)NC(Cc1ccccc1)C(=O)CCl` (stereo not drawn) [Z-GGF-CMK, Carboxybenzyl-glycine-glycine-phenylalanine-CMK] (Cbz-Gly-Gly-[ξF]-CH2Cl), for which the IC50 was 50 µM at ClpP1P2, more than 500 µM against human proteasome and 50 µM on bacterial proteasome. Moreover, the MIC50 in the data set with M. tuberculosis H37Rv [2] and with M. bovis BCG was 30 µM (≈ 13.4 µg/mL) throughout.

Consider `CC(C)C[C@H](NC(=O)CNC(=O)OCc1ccccc1)C(=O)NC(Cc1ccccc1)C(=O)CCl` (stereo partly drawn) [Z-GLF-CMK, Carboxybenzyl-glycine-leucine-phenylalanine-CMK] (Cbz-Gly-Leu-[ξF]-CH2Cl), for which the IC50 is 25 µM on ClpP1P2, more than 500 µM on human proteasome and 35 µM on bacterial proteasome. Moreover, the MBC against M. tuberculosis H37Rv [1] came out at 200 µM (≈ 100 µg/mL). Besides, the MIC50 against M. tuberculosis H37Rv [2] and in the data set on M. bovis BCG was 20 µM (≈ 10 µg/mL) throughout.

Source of the values: PMC5406460 (Frontiers in Microbiology, 2017).
